Experimental data from patent US20250197428A1, “INHIBITORS OF KIF18A AND USES THEREOF” (ACCENT THERAPEUTICS, INC., priority 2022, published 2025).
Where two headings read alike, the source gives them in different places.

Assays:
OVCAR-3 cells = assay: In vitro anti-proliferative activity assay in cancer cell line OVCAR-3 (CellTiter-Glo, 4- or 7-day); format: cell-based; settings: Homo sapiens, read-out: OVCAR-3 cellular antiproliferation assay IC50
KIF18A = KIF18A (Homo sapiens (Human), UniProt Q8NI77); assay: KIF18A Biochemical Assay (ATPase, ADP-Glo)
[1] = OVCAR-3, assay duration not indicated

Sequence of KIF18A (Q8NI77 1-367): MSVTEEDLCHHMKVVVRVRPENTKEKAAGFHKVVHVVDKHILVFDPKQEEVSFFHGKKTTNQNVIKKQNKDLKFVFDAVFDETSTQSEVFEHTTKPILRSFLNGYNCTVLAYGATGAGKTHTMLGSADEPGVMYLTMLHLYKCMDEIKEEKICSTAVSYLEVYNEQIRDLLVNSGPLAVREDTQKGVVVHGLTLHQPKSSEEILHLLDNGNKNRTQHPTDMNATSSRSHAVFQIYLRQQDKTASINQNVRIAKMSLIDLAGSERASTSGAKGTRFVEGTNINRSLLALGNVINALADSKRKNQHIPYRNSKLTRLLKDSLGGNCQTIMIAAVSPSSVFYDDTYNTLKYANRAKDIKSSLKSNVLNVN
Sequence of KIF18A (P02550 whole entry partner): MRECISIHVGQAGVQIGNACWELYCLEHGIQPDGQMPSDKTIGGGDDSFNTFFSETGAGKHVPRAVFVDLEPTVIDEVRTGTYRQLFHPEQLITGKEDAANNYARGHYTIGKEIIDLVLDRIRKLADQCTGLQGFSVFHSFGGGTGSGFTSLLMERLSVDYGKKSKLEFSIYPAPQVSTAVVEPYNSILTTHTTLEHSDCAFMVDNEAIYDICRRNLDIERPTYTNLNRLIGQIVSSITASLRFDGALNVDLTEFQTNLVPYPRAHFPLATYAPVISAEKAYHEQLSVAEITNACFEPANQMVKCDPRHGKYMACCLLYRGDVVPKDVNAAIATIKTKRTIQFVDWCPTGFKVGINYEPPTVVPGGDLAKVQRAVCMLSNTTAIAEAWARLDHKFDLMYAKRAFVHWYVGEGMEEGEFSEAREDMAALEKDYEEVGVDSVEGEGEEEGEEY
Sequence of KIF18A (P02554 whole entry partner): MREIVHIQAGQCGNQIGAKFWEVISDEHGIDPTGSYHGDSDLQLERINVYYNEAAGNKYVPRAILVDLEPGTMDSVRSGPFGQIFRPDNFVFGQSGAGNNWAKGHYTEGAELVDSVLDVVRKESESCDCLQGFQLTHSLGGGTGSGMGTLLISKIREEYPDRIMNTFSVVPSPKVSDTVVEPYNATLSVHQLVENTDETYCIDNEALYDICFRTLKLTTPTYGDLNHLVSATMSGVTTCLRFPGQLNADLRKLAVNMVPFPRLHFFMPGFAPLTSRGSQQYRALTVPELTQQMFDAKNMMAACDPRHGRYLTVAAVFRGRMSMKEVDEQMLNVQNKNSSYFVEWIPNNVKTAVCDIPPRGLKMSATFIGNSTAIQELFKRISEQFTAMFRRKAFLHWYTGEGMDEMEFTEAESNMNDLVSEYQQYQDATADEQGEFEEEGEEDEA

Structure (SMILES)	IC50 (OVCAR-3 cells; OVCAR-3, 168 h, 7-day assay) [nM]	IC50 (KIF18A) [nM]	IC50 (OVCAR-3 cells; OVCAR-3, 96 h, 4-day assay) [nM]	IC50 (OVCAR-3 cells; [1]) [nM]
Cc1cc(NC(=O)c2c(F)cc(NS(=O)(=O)CCO)cc2N2CC[C@]3(C)C[C@@H]3C2)nc(N2CCC(F)(F)CC2)n1 (single isomer, unassigned) [Example 31a]	100 to 500	–	–	–
Cc1cc(NC(=O)c2c(F)cc(NS(=O)(=O)CCO)cc2N2CC[C@@]3(C)C[C@H]3C2)nc(N2CCC(F)(F)CC2)n1 (single isomer, unassigned) [Example 31b]	100 to 500	–	–	–
COC[C@]12CCN(c3cc(NS(=O)(=O)CCO)ccc3C(=O)Nc3cc(C)nc(N4CCC(F)(F)CC4)n3)C[C@H]1C2 (single isomer, unassigned) [Example 49a]	100 to 500	< 100	–	–
Cc1cc(NC(=O)c2ccc(NS(=O)(=O)CCO)cc2N2CC[C@]3(F)CC[C@@H]3C2)nc(N2CCC(F)(F)CC2)n1 (single isomer, unassigned) [Example 50a]	100 to 500	< 100	–	–
C[Si]1(C)CCN(c2cc(NS(=O)(=O)CCO)ccc2C(=O)Nc2cccc(N3CCC(F)(F)CC3)n2)CC1 [Example 3, N-(6-(4,4-difluoropiperidin-1-yl)pyridin-2-yl)-2-(4,4-dimethyl-1,4-azasilinan-1-yl)-4-((2-hydroxyethyl)sulfonamido)benzamide]	–	< 100	< 100	–
C[Si]1(C)CCN(c2cc(NS(=O)(=O)CCO)c(F)cc2C(=O)Nc2ccnc(N3CCC(F)(F)CC3)n2)CC1 [Example 13]	–	< 100	500 to 1000	–
C[Si]1(C)CCN(c2cc(NS(=O)(=O)CCO)ccc2C(=O)Nc2ccnc(C3CC3)n2)CC1 [Example 15]	–	< 100	> 1000	–
CC1CN(c2cccc(NC(=O)c3ccc(S(=O)(=O)NCCO)cc3N3CC[Si](C)(C)CC3)n2)CCO1 (centres unmarked) [Example 18]	–	< 100	< 100	–
CC1CN(c2cccc(NC(=O)c3ccc(NS(=O)(=O)CCO)cc3N3CC[Si](C)(C)CC3)n2)CCO1 (centres unmarked) [Example 19]	–	< 100	< 100	–
C[Si]1(C)CCN(c2cc(NS(=O)(=O)CCO)ccc2C(=O)Nc2cccc(S(=O)(=O)C3CCCC3)n2)CC1 [Example 22]	–	100 to 500	< 100	–
C[Si]1(C)CCN(c2cc(NS(=O)(=O)CCO)ccc2NC(=O)c2ccnc(N3CCC(F)(F)CC3)n2)CC1 [Example 23]	–	100 to 500	100 to 500	–
CC(C)(C)NS(=O)(=O)c1cccc(NC(=O)c2ccc(S(=O)(=O)C3(C)COC3)cc2N2CC[Si](C)(C)CC2)c1 [Example 24]	–	–	100 to 500	–
O=C(Nc1ccnc(N2CCC(F)(F)CC2)n1)c1ccc2c(cnn2CCO)c1N1CCC2(CC1)CC2 [Example 25]	–	> 1000	–	–
Cc1cc(NC(=O)c2ncc(NS(=O)(=O)CCO)cc2N2CC[Si](C)(C)CC2)nc(N2CCC(F)(F)CC2)n1 [Example 26]	–	< 100	100 to 500	–
C[Si]1(C)CCN(c2cnccc2C(=O)Nc2cccc(S(=O)(=O)N3CCC(F)(F)CC3)c2)CC1 [Example 27]	–	> 1000	> 1000	–
Cc1cc(NC(=O)c2ccc(NS(=O)(=O)CCO)cc2N2CC[C@]3(C(F)F)C[C@@H]3C2)nc(N2CCC(F)(F)CC2)n1 [Example 29a, 2-((1S,6R)-6-(difluoromethyl)-3-azabicyclo[4.1.0]heptan-3-yl)-N-(2-(4,4-difluoropiperidin-1-yl)-6-methylpyrimidin-4-yl)-4-((2-hydroxyethyl)sulfonamido)benzamide]	–	< 100	< 100	–
Cc1cc(NC(=O)c2ccc(NS(=O)(=O)CCO)cc2N2CCC3(CO)CC3C2)nc(N2CCC(F)(F)CC2)n1 (centres unmarked) [Example 30, N-(2-(4,4-difluoropiperidin-1-yl)-6-methylpyrimidin-4-yl)-4-((2-hydroxyethyl)sulfonamido)-2-(6-(hydroxymethyl)-3-azabicyclo[4.1.0]heptan-3-yl)benzamide]	–	100 to 500	> 1000	–
Cc1cc(NC(=O)c2ccc(NS(C)(=O)=O)cc2N2CC[C@@]3(C)C[C@H]3C2)nc(N2CCC(F)(F)CC2)n1 [Example 32]	–	< 100	> 1000	–
Cc1cc(NC(=O)c2ccc(NS(C)(=O)=O)cc2N2CC[C@]3(C)C[C@@H]3C2)nc(N2CCC(F)(F)CC2)n1 [Example 33]	–	< 100	100 to 500	–
Cc1cc(NC(=O)c2c(F)cc(NS(=O)(=O)CCO)cc2N2CC[C@]3(C)C[C@@H]3C2)nc(N2CCC(F)(F)CC2)n1 [Example 38]	–	< 100	–	100 to 500
Cc1cc(NC(=O)c2ccc(NS(=O)(=O)CCO)cc2N2CC[C@@]3(CO)C[C@H]3C2)nc(N2CCC(F)(F)CC2)n1 [Example 39]	–	100 to 500	> 1000	–
Cc1cc(NC(=O)c2ccc(NS(=O)(=O)CCO)cc2N2CC[C@]3(CO)C[C@@H]3C2)nc(N2CCC(F)(F)CC2)n1 [Example 40]	–	> 1000	> 1000	–
Cc1cc(NC(=O)c2ccc(NS(=O)(=O)CCO)cc2N2CCC3(C(F)F)CC3C2)nc(N2CCC(F)(F)CC2)n1 (centres unmarked) [Example 41]	–	< 100	–	< 100

Structure (SMILES)	IC50 (OVCAR-3 cells; OVCAR-3, 168 h, 7-day assay) [nM]	IC50 (KIF18A) [nM]	IC50 (OVCAR-3 cells; OVCAR-3, 96 h, 4-day assay) [nM]	IC50 (OVCAR-3 cells; [1]) [nM]
Cc1cc(NC(=O)c2ccc(NS(=O)(=O)NCCO)cc2N2CC[C@@]3(C)C[C@H]3C2)nc(N2CCC(F)(F)CC2)n1 [Example 42]	–	< 100	> 1000	–
Cc1cc(NC(=O)c2ccc(NS(=O)(=O)NCCO)cc2N2CC[C@]3(C)C[C@@H]3C2)nc(N2CCC(F)(F)CC2)n1 [Example 43]	–	< 100	> 1000	–
O=C(Nc1cccc(S(=O)(=O)N2CCC(F)(F)CC2)c1)c1cccnc1N1CCC2CC2C1 (centres unmarked) [Example 44]	–	> 1000	–	–
CC12CCN(c3ncccc3C(=O)Nc3cccc(S(=O)(=O)N4CCC(F)(F)CC4)c3)CC1C2 (centres unmarked) [Example 45]	–	–	> 1000	–
C[C@]12CCN(c3ncccc3C(=O)Nc3cccc(S(=O)(=O)N4CCC(F)(F)CC4)c3)C[C@H]1C2 [Example 46]	–	–	> 1000	–
C[C@@]12CCN(c3ncccc3C(=O)Nc3cccc(S(=O)(=O)N4CCC(F)(F)CC4)c3)C[C@@H]1C2 [Example 47]	–	> 1000	–	–
Cc1cc(NC(=O)c2ccc(S(=O)(=O)NCCO)cc2N2CC[C@]3(C)C[C@@H]3C2)nc(N2CCC(F)(F)CC2)n1 [Example 52]	100 to 500	< 100	–	–
Cc1cc(NC(=O)c2ccc(S(=O)(=O)NCCO)cc2N2CC[C@@]3(C)C[C@H]3C2)nc(N2CCC(F)(F)CC2)n1 [Example 53]	100 to 500	< 100	–	–
Cc1cc(NC(=O)c2ccc(NS(C)(=O)=O)cc2N2CC[C@@]3(C(F)F)C[C@H]3C2)nc(N2CCC(F)(F)CC2)n1 [Example 55]	500 to 1000	< 100	–	–
Cc1cc(NC(=O)c2ccc(NS(=O)(=O)NCCO)cc2N2CC[C@@]3(C(F)F)C[C@H]3C2)nc(N2CCC(F)(F)CC2)n1 [Example 57]	> 1000	100 to 500	–	–
Cc1cc(NC(=O)c2ccc(NS(=O)(=O)CCO)cc2N2CC[C@@]3(C(F)F)C[C@H]3C2)nc(N2CCC(F)(F)CC2)n1 [Example 59]	100 to 500	< 100	–	–
O=C(Nc1ccnc(N2CCC(F)(F)CC2)n1)c1ccc(NS(=O)(=O)CCO)cc1N1CC[C@@]2(C(F)F)C[C@H]2C1 [Example 61]	100 to 500	< 100	–	–
Cc1cc(NC(=O)c2ccc(NS(=O)(=O)CCO)cc2N2CC[C@]3(C)C[C@@H]3C2)nc(N2CCC(F)(F)CC2)n1 [Example 62]	< 100	–	–	–
Cc1cc(NC(=O)c2ccc(NS(=O)(=O)CCO)cc2N2CC[C@@]3(C)C[C@H]3C2)nc(N2CCC(F)(F)CC2)n1 [Example 63]	< 100	–	–	–
O=C(Nc1cccc(N2CCC(F)(F)CC2)n1)c1ccc(NS(=O)(=O)CCO)cc1N1CC[C@]2(C(F)F)C[C@@H]2C1 [Example 64]	< 100	< 100	–	–
Cc1cc(NC(=O)c2ccc(NS(=O)(=O)CCO)cc2N2CC[C@]3(C(F)F)C[C@@H]3C2)nc(N2CCC(F)(F)CC2)c1 [Example 65]	< 100	< 100	–	–
Cc1cc(NC(=O)c2ccc(NS(=O)(=O)CCO)cc2N2CC[C@]3(C(F)F)C[C@@H]3C2)nc(OC[C@H](O)C(F)(F)F)n1 [Example 67]	> 1000	> 1000	–	–
Cc1cc(NC(=O)c2ccc(NS(=O)(=O)CCO)cc2N2CC[C@@]3(C(F)F)C[C@H]3C2)nc(OC[C@H](O)C(F)(F)F)n1 [Example 68]	> 1000	> 1000	–	–
C[Si]1(C)CCN(c2cc(NS(=O)(=O)CCO)ccc2C(=O)Nc2ccnc(S(=O)(=O)C3CCCC3)n2)CC1 [Example 89]	100 to 500	–	–	–
C[C@H]1CN(c2nccc(C(=O)Nc3ccc(NS(=O)(=O)CCO)cc3N3CC[Si](C)(C)CC3)n2)CCO1 [Example 91]	100 to 500	–	–	–
CC[Si]1(CC)CCN(c2ncccc2C(=O)Nc2cccc(S(=O)(=O)N3CCC(F)(F)CC3)c2)CC1 [Example 92]	> 1000	–	–	–
C[Si]1(C)CCN(c2ncccc2C(=O)Nc2cccc(S(=O)(=O)N3CCC(F)(F)CC3)c2)C1 [Example 93]	> 1000	–	–	–
C[Si]1(C)CCN(c2cc(NS(=O)(=O)CCO)c(F)cc2NC(=O)c2cccc(N3CCC(F)(F)CC3)n2)CC1 [Example 95]	–	–	< 100	–
